Assay results from patent US9216942B2, “Compounds and uses thereof for treating inflammation and modulating immune responses” (PURAPHARM COMPANY LIMITED, priority 2012, dated 2015).

Legend:
PBMac = experiment: MTT cytotoxicity assay on PBMac; assay type: cell-based, Human; settings: 25-75 ug/ml, time course of 48 h
Procedure: Incubation of PBMac cells with the compounds at various concentrations produces no significant difference in the metabolic activities of the cells, when compared to control. Cytotoxic effects of Compounds A1, A2 and Cim A (25-75 ug/ml) on PBMac are determined by MTT (3-[4,5-dimethylthiazol-2-yl]-2,5-di-phenyltetrazolim bromide) assays over a time course of 48 h.
(§1) Human peripheral blood monocytic cells (PBMC) were isolated from the buffy coat of healthy donor blood supplied by Hong Kong Red Cross by Ficoll-Paque (Amersham Pharmacia Biotech, Piscataway, N.J.) density gradient centrifugation as described in our previous reports. In brief, the buffy coat was spun at 3000 rotations per min (rpm) for 15 min to separate the blood cells and the plasma. The heat inactivated serum was filtered for future use.
(§2) The cell layer was diluted with phosphate buffered saline (PBS) in a ratio of 1:1. The diluted cells were overlaid on Ficoll-Paque slowly and centrifuged at 2300 rpm for 20 min for separation of mononuclear cells from erythrocytes. The mononuclear cell layer was removed and washed with RPMI 1640 medium until the supernatant was clear.
(§3) The cells were finally resuspended in RPMI 1640 medium supplemented with 5% autologous serum and cultured for 1 hr. The non-adherent cells were removed afterwards and the remaining adherent cells were further incubated for another 24 hr at 37° C. in 5% carbon dioxide (CO2).
(§4) The adherent monocytic cells were detached and seeded onto tissue culture plates and incubated for another 7-14 days in order to differentiate the primary blood monocytic cells to primary blood macrophages (PBMac).

[1] = tested on: LPS-induced TNF-α production; experiment: Inhibition of LPS-induced TNF-α production in PBMac (ELISA); assay type: cell-based, Human; settings: for inhibition of LPS-induced TNF-α protein production: PBMac pre-incubated with compound 18 h, then 10 ng/ml LPS for 24 h, ELISA of supernatant, mean±S.D., compound concentration not given (25 and 50 ug/ml tested)
Procedure: FIGS. 2 (A-C) show the inhibition of LPS-induced TNF-α production by Compound A1, Compound A2 and Cim A. PBMac cells are incubated with (A) 25 and 50 ug/ml A1 or (B) 25 and 50 ug/ml A2 or (C) 25 and 50 ug/ml Cim A for 18 h prior to the addition of 10 ng/ml LPS for another 24 h. The culture supernatants are collected and assayed for TNF-α production by enzyme-linked immunosorbent assay (ELISA). The results shown are the mean values±standard derivation (S.D.) of at least three independent experiments, with cells obtained from different donors. * P<0.05, ** P<0.01 compared with the control.
Endotoxin (lipopolysachamide, LPS) from E. coli was purchased from Sigma and used as an inducer of TNF-α expression. Dexamethasone (Sigma) was used as a control drug to inhibit the LPS induction of TNF-α.
as §1, §2, §3, §4
Culture supernatants of the LPS-treated PBMac, with or without pretreatment of Cim A, Compound A1 or Compound A2, were collected at different time intervals and stored at −70° C. The levels of the secreted TNF-α were measured by ELISA kits specific for the cytokine (R&D system, Minneapolis, Minn.).

In the case of COc1ccc(/C=C/C(=O)OCC(=O)Cc2ccc(O)c(O)c2)cc1O [Cim A, Cimiracemate A, reference compound], the “cytotoxic effects (MTT, metabolic activity of cells vs control)” value (PBMac) was “almost no cytotoxic effects” and the “inhibition of LPS-induced TNF-α protein production” value (from here on “inhibition”) [1] was 50±19%.

For O=C(COC(=O)/C=C/c1ccc(O)c(O)c1)Cc1cccc(O)c1 [Compound A1], the “cytotoxic effects (MTT, metabolic activity of cells vs control)” value (PBMac) was “almost no cytotoxic effects” and the “inhibition” value [1] was 26±15%.

In the case of COc1ccc(/C=C/C(=O)OCC(=O)Cc2ccc(O)c(O)c2)cc1 [Compound A2], the “cytotoxic effects (MTT, metabolic activity of cells vs control)” value (PBMac) was “almost no cytotoxic effects”, the “inhibition” value [1] was 67±10% and the “activity in inhibiting LPS-induced TNF-α production, higher than that of Cim A” value ([1]; compound at 50 μg/ml, relative to Cim A) was 34%.
